{"source": "paper PMC11344848", "about": "“Proximity-driven site-specific cyclization of phage-displayed peptides” (Nature Communications, 2024)", "key": {"streptavidin [1]": {"target": "T1, streptavidin (Streptomyces avidinii, UniProt P22629)", "T1 sequence (P22629 25-183)": "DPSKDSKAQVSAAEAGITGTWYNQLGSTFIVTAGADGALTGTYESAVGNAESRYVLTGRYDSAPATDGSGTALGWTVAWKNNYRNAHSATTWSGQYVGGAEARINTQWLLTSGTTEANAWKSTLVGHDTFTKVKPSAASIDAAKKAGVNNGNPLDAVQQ", "assay": "Sequencing of clones enriched after three rounds of selection of library L1-CCA against streptavidin", "conditions": "clones sequenced after three rounds of selection against streptavidin", "description": "Streptavidin-coated magnetic Dynabeads™ (50 μL/ selection, prewashed with 1 mL PBS) were blocked with 3% (w/v) mPBS (1 mL) for 1 h on a rotary mixer at room temperature and 20 RPM. L1 phage particles (~ 10^11) were reduced with DTT (1 mM) for 30 min at 37 °C in PBS (total reaction volume = 100 µL). The beads were pelleted on a magnetic stand and reduced L1 phage particles (~ 10^11) were added. After 1 h on a rotary mixer at room temperature and 20 RPM, the beads were pelleted and the supernatant was transferred to a fresh Eppendorf. Linker CCA (final concentration = 150 µM) in DMSO (5% total volume) was added and the reaction was left to incubate for 2 h at room temperature.\nL1-CCA: Output phage from the negative streptavidin selection above.\nL1-Red/ L1-CCA input phage (~ 10^11) and streptavidin-coated magnetic Dynabeads™ (50 μL/ selection, prewashed with 1 mL PBS) were incubated with 3% (w/v) mPBS (volume made up to 500 μL for phage, 1 mL for beads) for 1 h on a rotary mixer at room temperature and 20 RPM. The beads were pelleted on a magnetic stand and resuspended in 3% (w/v) mPBS (100 μL). An aliquot of the blocked beads (50 μL) was added to the blocked phage. The mixture was incubated for 1 h on a rotary mixer at room temperature and 20 RPM.\nUsing a Kingfisher mL apparatus, the beads were washed x5 with PBST (1 mL) and eluted into trypsin solution (10 µg/ mL trypsin in 0.1 M pH 7.0 sodium phosphate buffer, 200 µL). Trypsin digest was performed for 30 min at 37 °C and 600 RPM, the beads were pelleted and the supernatant was added to OD600nm = 0.6 TG1 E. coli (800 µL). After 1 h at 37 °C and 250 RPM, output titres were performed and the remaining cells were plated O/N on a 2xTYAG bioassay plate at 37 °C. The next day, the cells were harvested from the plate, as described below."}, "streptavidin [2]": {"target": "T1, streptavidin", "assay": "Streptavidin-binding phage ELISA", "conditions": "for Phage ELISA signal, Linear: Figure 6a, peptide linear (reduced using DTT), bound phage detected with anti-M13-HRP; for Phage ELISA signal, Linear / Phage ELISA signal, Lin: phage clone; for Phage ELISA signal, Lin: Figure 6b, peptide linear; for Binding to streptavidin in phage ELISA (in words): phage-displayed peptide, form as stated in the sentence (CCA replaced with linkers 1, 2, 3 or 4; CCA-cyclized negative control)", "description": "All incubation steps were performed at room temperature unless otherwise stated. A Pierce™ streptavidin-coated 96 well plate (Thermo Fisher Scientific) was treated O/N at 4 °C with biotinylated antigen (50 µL/well, 10 ng/µL in assay buffer). The next day, the plate was washed x3 with PBS to remove unbound antigen and incubated for 1 h with blocking buffer (300 µL/ well). At the same time, phage cultures (100 µL, ~ 10^10) were incubated for 1 h with blocking buffer (400 µL).\nThe 96-well plate was washed x3 with PBS and subsequently incubated with blocked phage (50 µL/ well) for 1 h. The plate was washed x3 with PBST, and bound phage was detected via the addition of anti-M13 HRP conjugated secondary antibody (50 µL/ well, 1/5000 dilution in blocking buffer, Abcam). After 1 h, the plate was washed x3 with PBST. HRP was developed using TMB substrate (50 µL/ well, Thermo Fisher Scientific), quenched after 5 min with H2SO4 (50 µL/ well, 0.5 M) and visualised at λ = […] using an EnVision Microplate Reader (PerkinElmer). Data was processed using SoftMax® Pro Software v7. […]\nBiotinylated antigen = none required, assay buffer = N/A, blocking buffer = 3% (w/v) mPBS."}, "Ph1 phage particles": {"system": "Ph1 phage particles", "assay": "Phage infectivity studies (titre of infective phage after linker treatment)", "conditions": "Figure 4d; phage treated with DTT (1 mM) only", "description": "CCA: Ph1 phage particles (~ 10^11) were reduced with DTT (1 mM) for 30 min at 37 °C in a total volume of 95 µL. Linker CCA (final concentration = 150 µM) in DMSO (5% total volume) was added and the reaction was left to incubate for 2 h at room temperature. DBX: Ph1 phage particles (~ 10^11) were reduced with TCEP (1 mM) for 30 min at 37 °C in a total volume of 95 µL. Reduced Ph1 phage particles were buffer exchanged into NH4HCO3 (20 mM, pH 8.0) using Zeba™ Spin Desalting Columns (7 K MWCO, 0.5 mL) following the manufacturer’s instructions. Linker DBX (final concentration = 150 µM) in DMSO (5% total volume) was added and the reaction was left to incubate for 2 h at room temperature.\nFor each sample, two 100-fold dilutions in 2xTY were prepared. An aliquot (10 μL) of the 10^−4 dilution sample was added to TG1 E. coli (990 µL) grown to OD600nm = 0.6. After 1 h of infection at 37 °C and 150 RPM, four further 10-fold dilutions in 2xTY were prepared (10^−7 – 10^−10). Aliquots (100 µL) of dilution samples 10^−7 – 10^−10 were plated O/N on 2xTYAG agar at 37 °C. The next day, phage titres were calculated according to the equation.\nCfu/mL = [No. of colonies] x [Dilution factor] x [1/Volume plated (mL)]."}, "streptavidin [3]": {"target": "T1, streptavidin", "assay": "SPR binding of synthetic peptides to immobilised streptavidin (Biacore 8K)", "conditions": "synthetic peptide as disulphide-bonded entity, 25 °C, 4.1-9000 nM, HBS-EP+ pH 7.4", "description": "The affinity of peptides Str1 and Str1-CCA to streptavidin was measured using the Biacore 8 K (GE Healthcare) at 25 °C.\nFor cyclization, peptide Str1 (5 mg, GL Biochem) was dissolved in PBS (20 mL) and treated with DTT (1.2 eq.) for 1 h at RT then linker CCA (2 eq.) for 3 h at RT. The reaction was purified by RP-HPLC and characterised by LC-MS to confirm the correct identity of the cyclized product, Str1-CCA. Str1 = 1351 Da and Str1-CCA = 1601 Da.\nStreptavidin was covalently immobilised to a CM5 chip surface (Cytiva, BR100530, lot 10340325) using standard amine coupling techniques at a concentration of 16 µg/ml in 10 mM sodium acetate pH 4.5.\nThe peptides were serially diluted (4.1 – 9000 nM) in HBS-EP + buffer pH 7.4 and flowed over the chip at 30 µL/min, with 180 s association and 600 s dissociation. Multiple buffer-only injections were made under the same conditions to allow for double reference subtraction of the final sensorgram sets, which were analysed using Biacore 8 K Evaluation Software. Each experiment was repeated three times, which gave consistent results. Representative results are presented in the paper."}}, "note": "Positions of bridges follow the written chain, without caps; N, C: chain ends. No end group written: not given here.", "data": [{"compound": "CPFNIKNPDDGC [Str2, phage clone displaying streptavidin-selected peptide]", "values": [{"measurement": "Abundance (Total = 96)", "setting": "streptavidin [1]", "result": 7}, {"measurement": "Phage ELISA signal, Linear", "setting": "streptavidin [2]", "result": 0.111}]}, {"compound": "CGGSGGC [negative control phage construct, reference compound]", "values": [{"measurement": "Phage ELISA signal, Linear", "setting": "streptavidin [2]", "result": 0.052}, {"measurement": "Phage ELISA signal, Lin", "setting": "streptavidin [2]", "result": 0.065}, {"measurement": "Binding to streptavidin in phage ELISA (in words)", "setting": "streptavidin [2]", "result": "No binding"}]}, {"compound": "O[C@@H](CS)[C@@H](O)CS", "note": "[DTT, reference compound]", "values": [{"measurement": "Phage titre", "setting": "Ph1 phage particles", "result": "1.30E+11", "unit": "Cfu/mL"}]}, {"compound": "CPINIFHPPPDC (disulfide 1-12 (inferred)) [Str1, streptavidin-selected peptide; tested as phage clone and as synthetic disulphide-bonded peptide]", "values": [{"measurement": "SPR signal (in words)", "setting": "streptavidin [3]", "result": "no SPR signal observed"}, {"measurement": "Abundance (Total = 96)", "setting": "streptavidin [1]", "result": 42}, {"measurement": "Phage ELISA signal, Linear", "setting": "streptavidin [2]", "result": 0.115}]}, {"compound": "CPFNFFIWNDEC [Str9, phage clone displaying streptavidin-selected peptide]", "values": [{"measurement": "Abundance (Total = 96)", "setting": "streptavidin [1]", "result": 2}, {"measurement": "Phage ELISA signal, Linear", "setting": "streptavidin [2]", "result": 0.315}]}, {"compound": "CPTNTQYDLTIC", "values": [{"measurement": "Abundance (Total = 96)", "setting": "streptavidin [1]", "result": 4}]}, {"compound": "CWLNHPQAPPEC [reference compound]", "values": [{"measurement": "Phage ELISA signal, Linear", "setting": "streptavidin [2]", "result": 1.437}]}, {"compound": "CPYNVERPDSHC [Str8, phage clone displaying streptavidin-selected peptide]", "values": [{"measurement": "Abundance (Total = 96)", "setting": "streptavidin [1]", "result": 2}, {"measurement": "Phage ELISA signal, Linear", "setting": "streptavidin [2]", "result": 0.029}]}, {"compound": "CPFNIASPFYGC [Str6, phage clone displaying streptavidin-selected peptide]", "values": [{"measurement": "Abundance (Total = 96)", "setting": "streptavidin [1]", "result": 12}, {"measurement": "Phage ELISA signal, Linear", "setting": "streptavidin [2]", "result": 0.254}]}, {"compound": "CPINVQYSTGTC [Str7, phage clone displaying streptavidin-selected peptide]", "values": [{"measurement": "Abundance (Total = 96)", "setting": "streptavidin [1]", "result": 1}, {"measurement": "Phage ELISA signal, Linear", "setting": "streptavidin [2]", "result": 0.032}, {"measurement": "Phage ELISA signal, Lin", "setting": "streptavidin [2]", "result": 0.106}, {"measurement": "Binding to streptavidin in phage ELISA (in words)", "setting": "streptavidin [2]", "result": "no binding"}]}, {"compound": "CPYNIAGPPLYC [Str3, phage clone displaying streptavidin-selected peptide]", "values": [{"measurement": "Abundance (Total = 96)", "setting": "streptavidin [1]", "result": 13}, {"measurement": "Phage ELISA signal, Linear", "setting": "streptavidin [2]", "result": 0.123}]}, {"compound": "CPFNILVPFIDC [Str4, phage clone displaying streptavidin-selected peptide]", "values": [{"measurement": "Abundance (Total = 96)", "setting": "streptavidin [1]", "result": 5}, {"measurement": "Phage ELISA signal, Linear", "setting": "streptavidin [2]", "result": 0.254}]}, {"compound": "CPYNIINPTFDC [Str5, phage clone displaying streptavidin-selected peptide]", "values": [{"measurement": "Abundance (Total = 96)", "setting": "streptavidin [1]", "result": 8}, {"measurement": "Phage ELISA signal, Linear", "setting": "streptavidin [2]", "result": 0.096}]}]}
